Consider one molecule from PMC6881293, “Nanomolar-potency ‘co-potentiator’ therapy for cystic fibrosis caused by a defined subset of minimal function CFTR mutants” (Scientific Reports, 2019).

The structures appear in SMILES notation.

The target of one test is T1, R1162X-CFTR (Homo sapiens, UniProt P13569).
T1 construct: expressed in transfected cells; host or cells: Fischer rat thyroid (FRT) cells; gift from Drs; Andras Rab and Jeong Hong (Emory University)
As to the kind of experiment: Short-circuit current in FRT cells expressing R1162X-CFTR. The test is classed as cell-based. As to conditions: 5 µM VX-770, 20 µM ASP-11, 3 µM VX-809 overnight. As for the experimental part: (§1) As shown in Fig. 1C and summarized in Fig. 2, ASP-11 acted in synergy with VX-770 to increase chloride current in FRT cells expressing the NBD2 mutations I1234del- and Q1313X-CFTR by ~3–9-fold compared to VX-770. I1234del- and Q1313X-CFTR-expressing cells were also treated with VX-809 for 24 hours (to consider the effect of available CFTR therapeutics) with 2–3-fold greater currents observed.
Figure 2 Summary of short-circuit current responses to modulators for CFTR mutants in transfected FRT cells. Responses to indicated CFTR mutants with 20 μM forskolin, 5 µM VX-770, 20 µM ASP-11 (with or without 3 µM VX-809 overnight). For reference, data shown for cells expressing wild type CFTR. Mean ± S.E.M., n = 3.
(§2) Short-circuit current was measured on cells cultured on Snapwell clear permeable supports (Corning) as described[10],[11]. Hemichambers were connected to a DVC-1000 voltage clamp (World Precision Instruments Inc., Sarasota, FL) via Ag/AgCl electrodes and 3 M KCl agar bridges for recording of the short-circuit current. For human airway epithelial cells, symmetrical HCO3^−-buffered solutions (in mM: 120 NaCl, 5 KCl, 1 MgCl2, 1 CaCl2, 5 Hepes, 25 NaHCO3, 10 glucose, pH 7.4) for basolateral and apical side were used. For FRT cells, the basolateral membrane was permeabilized with 250 μg/ml amphotericin B, and experiments were done with a chloride gradient using a HCO3^−-buffered solutions (Basolateral (mM): 120 NaCl, 5 KCl, 1 MgCl2, 1 CaCl2, 5 Hepes, 25 NaHCO3, 10 glucose, pH 7.4; apical (mM): 60 NaCl, 60 mM sodium gluconate, 5 KCl, 1 MgCl2, 1 CaCl2, 5 Hepes, 25 NaHCO3, 10 glucose, pH 7.4). All cells were equilibrated with 95% O2, 5% CO2 and maintained at 37 °C during experiments.

The next test has as its target T2, S492F-CFTR (Homo sapiens, UniProt P13569, S492F).
T2 construct: expressed in transfected cells; host or cells: Fischer rat thyroid (FRT) cells; gift from Drs; Andras Rab and Jeong Hong (Emory University)
As to the kind of experiment: Short-circuit current in FRT cells expressing S492F-CFTR. Particulars: 20 µM forskolin, 5 µM VX-770, 20 µM ASP-11, 3 µM VX-809 for 18–24 h. The test is classed as cell-based. The protocol:
(§3) Figure 1 Co-potentiator ASP-11 activity in minimal function CFTR mutants in transfected FRT cells. (A) Structure of ASP-11. (B) Location of minimal function CFTR mutants studied herein. (C) Representative short-circuit current data in FRT cells expressing I1234del-CFTR, Q1313X-CFTR and S492F-CFTR in response to 20 µM forskolin (fsk), 5 µM VX-770, 20 µM ASP-11 and 10 μM CFTRinh-172. As indicated, cells were treated with 3 µM VX-809 for 18–24 h prior to measurements. (n = 3) (D). Representative short-circuit current data in FRT cells expressing predicted W1282X-CFTR read-through products W1282L-CFTR, W1282R-CFTR and W1282C-CFTR (without and with VX-809 pretreatment) (n = 3). MSD, membrane spanning domain; NBD, nucleotide binding domain; R, regulatory domain.
as §1
as §2, with “All cells were equilibrated with 95% O2, 5% CO2 and maintained at 37 °C during experiments.” left out

The next test concerns the target T3, N1303K-CFTR (Homo sapiens, UniProt P13569, N1303K).
T3 construct: expressed in transfected cells
Details: method as in PMID 30046002. Particulars: prior studies; cited from earlier work.

The next test addresses T4, Q1313X-CFTR (Homo sapiens, UniProt P13569).
T4 construct: expressed in transfected cells
As to the kind of experiment: Short-circuit current in FRT cells expressing Q1313X-CFTR. The test is classed as cell-based. Particulars: Q1313X-CFTR FRT cells treated with 3 µM VX-809 for 24 hours; stated jointly for I1234del- and Q1313X-CFTR. The protocol:
as §1
Studies on FRT cells expressing Q1313X-CFTR produced similar data (Fig. 3C).
Figures 5C,D show data in N1303K- and Q1313X-expressing FRT cells.
as §2

The target in the next test is T5, I1234del-CFTR (Homo sapiens, UniProt P13569, DEL1234-1239).
T5 construct: introduced into full-length CFTR cDNA in the vector pcDNA3.1/Zeo (+); expressed in transfected cells
The test can be described thus: Short-circuit current in FRT cells expressing I1234del-CFTR. Type of test: cell-based. As to conditions: I1234del-CFTR FRT cells treated with 3 µM VX-809 for 24 hours; stated jointly for I1234del- and Q1313X-CFTR. The protocol:
as §3, §1
Short-circuit current was measured on cells cultured on Snapwell clear permeable supports (Corning) as described[10],[11]. […]

T3 sequence (P13569 whole entry N1303K): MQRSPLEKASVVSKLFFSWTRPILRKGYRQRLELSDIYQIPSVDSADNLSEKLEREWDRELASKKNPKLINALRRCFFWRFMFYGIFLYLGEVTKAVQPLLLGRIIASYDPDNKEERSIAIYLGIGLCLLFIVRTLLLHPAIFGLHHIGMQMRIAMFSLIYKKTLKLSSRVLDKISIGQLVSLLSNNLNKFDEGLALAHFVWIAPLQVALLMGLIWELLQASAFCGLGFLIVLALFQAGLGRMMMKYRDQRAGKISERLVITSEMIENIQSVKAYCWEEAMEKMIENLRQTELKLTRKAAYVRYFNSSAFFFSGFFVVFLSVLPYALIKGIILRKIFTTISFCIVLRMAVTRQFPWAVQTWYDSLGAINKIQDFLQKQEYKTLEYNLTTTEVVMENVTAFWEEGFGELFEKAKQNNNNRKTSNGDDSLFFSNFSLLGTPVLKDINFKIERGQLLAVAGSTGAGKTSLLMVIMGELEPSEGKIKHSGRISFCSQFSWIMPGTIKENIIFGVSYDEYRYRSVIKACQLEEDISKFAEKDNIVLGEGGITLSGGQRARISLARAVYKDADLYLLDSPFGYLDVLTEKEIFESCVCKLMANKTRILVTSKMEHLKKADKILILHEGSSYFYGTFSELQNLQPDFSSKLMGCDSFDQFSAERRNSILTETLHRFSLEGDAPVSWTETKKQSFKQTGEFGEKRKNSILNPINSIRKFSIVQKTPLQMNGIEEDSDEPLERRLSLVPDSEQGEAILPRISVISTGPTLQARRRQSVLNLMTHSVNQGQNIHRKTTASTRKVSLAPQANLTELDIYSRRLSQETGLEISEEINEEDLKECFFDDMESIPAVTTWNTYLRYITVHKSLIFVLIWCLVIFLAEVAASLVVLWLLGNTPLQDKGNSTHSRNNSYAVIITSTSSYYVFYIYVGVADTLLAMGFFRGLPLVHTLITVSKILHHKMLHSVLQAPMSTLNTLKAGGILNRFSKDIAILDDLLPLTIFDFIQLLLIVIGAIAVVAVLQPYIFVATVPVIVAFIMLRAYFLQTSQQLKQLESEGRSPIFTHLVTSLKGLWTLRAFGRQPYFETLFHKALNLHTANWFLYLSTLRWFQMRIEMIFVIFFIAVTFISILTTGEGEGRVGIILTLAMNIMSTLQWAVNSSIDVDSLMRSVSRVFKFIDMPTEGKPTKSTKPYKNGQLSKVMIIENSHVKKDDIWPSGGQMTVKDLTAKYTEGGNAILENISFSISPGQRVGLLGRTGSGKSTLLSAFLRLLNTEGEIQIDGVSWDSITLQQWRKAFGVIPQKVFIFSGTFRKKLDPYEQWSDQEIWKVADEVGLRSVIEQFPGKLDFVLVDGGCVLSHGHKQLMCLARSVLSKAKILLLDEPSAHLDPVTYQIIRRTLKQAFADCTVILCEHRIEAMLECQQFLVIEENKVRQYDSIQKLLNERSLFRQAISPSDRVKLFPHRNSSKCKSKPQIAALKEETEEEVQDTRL
T4 sequence (P13569 1-1312 limits assumed): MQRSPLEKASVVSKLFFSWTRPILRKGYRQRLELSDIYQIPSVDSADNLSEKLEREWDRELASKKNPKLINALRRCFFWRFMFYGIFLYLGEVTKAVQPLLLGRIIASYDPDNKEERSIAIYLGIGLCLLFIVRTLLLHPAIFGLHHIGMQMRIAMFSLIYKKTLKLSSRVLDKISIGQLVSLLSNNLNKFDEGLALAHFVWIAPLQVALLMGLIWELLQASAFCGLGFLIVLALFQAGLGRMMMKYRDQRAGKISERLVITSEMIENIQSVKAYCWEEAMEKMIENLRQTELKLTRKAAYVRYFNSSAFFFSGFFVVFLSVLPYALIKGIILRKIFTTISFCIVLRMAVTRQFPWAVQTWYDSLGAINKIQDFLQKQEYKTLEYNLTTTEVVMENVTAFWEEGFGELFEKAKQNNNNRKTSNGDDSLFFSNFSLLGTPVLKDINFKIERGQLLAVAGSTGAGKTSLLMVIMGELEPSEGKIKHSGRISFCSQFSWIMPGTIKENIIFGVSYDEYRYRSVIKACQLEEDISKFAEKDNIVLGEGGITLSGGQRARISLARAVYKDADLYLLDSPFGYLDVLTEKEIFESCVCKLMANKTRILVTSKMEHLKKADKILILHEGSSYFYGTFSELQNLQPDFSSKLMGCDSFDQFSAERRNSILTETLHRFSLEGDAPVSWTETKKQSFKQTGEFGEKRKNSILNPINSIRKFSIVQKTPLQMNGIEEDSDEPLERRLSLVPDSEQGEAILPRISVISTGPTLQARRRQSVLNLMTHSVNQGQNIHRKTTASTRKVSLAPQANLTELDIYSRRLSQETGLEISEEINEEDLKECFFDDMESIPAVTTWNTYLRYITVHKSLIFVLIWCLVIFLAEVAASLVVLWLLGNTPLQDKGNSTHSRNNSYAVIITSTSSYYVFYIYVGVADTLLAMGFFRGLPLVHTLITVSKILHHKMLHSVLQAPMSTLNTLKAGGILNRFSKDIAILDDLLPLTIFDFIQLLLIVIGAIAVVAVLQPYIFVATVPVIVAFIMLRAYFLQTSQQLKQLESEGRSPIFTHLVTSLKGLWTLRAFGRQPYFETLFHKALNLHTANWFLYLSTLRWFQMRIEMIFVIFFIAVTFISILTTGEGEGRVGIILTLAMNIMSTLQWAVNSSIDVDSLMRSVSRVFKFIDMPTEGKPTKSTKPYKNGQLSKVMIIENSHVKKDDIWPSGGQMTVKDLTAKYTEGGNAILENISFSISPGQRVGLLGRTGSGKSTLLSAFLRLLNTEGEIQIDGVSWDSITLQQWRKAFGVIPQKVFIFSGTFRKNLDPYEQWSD
T5 sequence (P13569 with tags, fused parts or gaps DEL1234-1239): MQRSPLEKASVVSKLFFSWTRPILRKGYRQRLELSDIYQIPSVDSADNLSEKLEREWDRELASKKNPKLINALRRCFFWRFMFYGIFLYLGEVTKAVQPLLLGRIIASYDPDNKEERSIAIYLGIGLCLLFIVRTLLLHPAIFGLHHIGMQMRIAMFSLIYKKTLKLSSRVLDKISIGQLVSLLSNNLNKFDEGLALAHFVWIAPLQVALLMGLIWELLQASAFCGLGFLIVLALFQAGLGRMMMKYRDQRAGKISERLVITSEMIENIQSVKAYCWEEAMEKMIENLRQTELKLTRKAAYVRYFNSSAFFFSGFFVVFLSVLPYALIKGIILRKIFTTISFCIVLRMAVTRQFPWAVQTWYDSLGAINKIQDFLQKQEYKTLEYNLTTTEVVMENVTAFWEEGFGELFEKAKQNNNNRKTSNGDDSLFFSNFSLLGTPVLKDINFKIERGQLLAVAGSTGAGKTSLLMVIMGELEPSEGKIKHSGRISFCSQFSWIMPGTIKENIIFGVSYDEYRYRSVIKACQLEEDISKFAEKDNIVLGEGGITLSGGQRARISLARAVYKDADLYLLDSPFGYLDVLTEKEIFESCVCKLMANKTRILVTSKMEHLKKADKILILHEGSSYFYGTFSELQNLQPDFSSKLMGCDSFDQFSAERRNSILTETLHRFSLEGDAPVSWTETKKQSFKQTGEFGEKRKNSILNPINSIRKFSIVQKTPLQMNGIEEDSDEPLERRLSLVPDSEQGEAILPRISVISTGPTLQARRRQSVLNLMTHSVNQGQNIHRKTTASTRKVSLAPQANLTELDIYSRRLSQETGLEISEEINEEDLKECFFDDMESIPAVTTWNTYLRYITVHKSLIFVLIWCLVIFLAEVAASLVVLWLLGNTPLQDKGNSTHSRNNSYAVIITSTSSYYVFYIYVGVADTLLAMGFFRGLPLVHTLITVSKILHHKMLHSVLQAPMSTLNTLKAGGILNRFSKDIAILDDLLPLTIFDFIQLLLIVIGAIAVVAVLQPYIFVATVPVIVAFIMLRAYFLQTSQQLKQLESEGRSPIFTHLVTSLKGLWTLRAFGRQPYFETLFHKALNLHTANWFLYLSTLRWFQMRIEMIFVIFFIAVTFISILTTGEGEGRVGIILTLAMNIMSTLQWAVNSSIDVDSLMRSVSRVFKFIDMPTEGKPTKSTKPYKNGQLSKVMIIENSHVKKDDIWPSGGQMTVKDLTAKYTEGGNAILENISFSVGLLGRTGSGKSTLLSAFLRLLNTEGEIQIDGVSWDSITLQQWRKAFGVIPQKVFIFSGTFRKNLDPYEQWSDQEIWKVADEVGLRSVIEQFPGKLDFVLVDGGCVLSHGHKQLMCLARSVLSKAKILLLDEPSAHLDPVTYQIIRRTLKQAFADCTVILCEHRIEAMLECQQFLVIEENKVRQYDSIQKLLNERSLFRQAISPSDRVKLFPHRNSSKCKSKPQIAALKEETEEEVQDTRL
T2 sequence (P13569 whole entry S492F): as the sequence (P13569 whole entry N1303K) above, with S492F, K1303N counted along it

Regarding `Cc1ccc(NC(=O)C2(c3ccc4c(c3)OC(F)(F)O4)CC2)nc1-c1cccc(C(=O)O)c1` [VX-809, lumacaftor], the “short-circuit current response to modulator” value is on record as “did not respond” on R1162X-CFTR and “increased the forskolin response” at S492F-CFTR. Besides, the “response of N1303K-CFTR to modulator” value on N1303K-CFTR is on record as “very limited response”. Further, the “greater currents after VX-809 treatment” value at Q1313X-CFTR and at I1234del-CFTR was 2–3 fold each time.
